In US7465469B2, “Microbiocidal formulation comprising essentials oils or their derivatives” (State of Israel, Ministry of Agriculture & Rural …, priority 2001, dated 2008):

How the values were obtained:
Penicillium digitatum [1] = test: Decay of Penicillium-inoculated grapefruit after 2-minute dip; type: in vivo, Penicillium digitatum on grapefruit; settings: 25% Ethanol dip; three weeks after inoculation
Text: Unblemished grapefruit were harvested from the orchard and on the same day sorted again in the laboratory to eliminate injured fruit. The grapefruit were washed with tap water and air-dried. Each fruit was then inoculated by piercing its flavedo tissue 1.5 mm deep with a tool incorporating three needles at three different sites. Prior to each piercing, the tool was immersed in a spore suspension of Penicillium digitatum (10^6 spores/ml).

kumquat fruit = test: Decay of uninoculated kumquat fruit after storage and shelf life simulation; type: in vivo; settings: 11 days at 10° C. and shelf life at 20° C. for 6 days; limonene 5000 μL L^−1 exposed to sunlight for 3 hours in 25% ethanol + 5000 μL L^−1 TWEEN 20
Description: Exposure to sunlight or irradiation of the dichloromethane or hexane extract of lemon flavedo should be conducted for 3 to 6 hours. The efficiency of the extract hydroperoxide formulation as a biocidal composition grows with longer periods of exposure of the fruit to the hydroperoxide solution. […] The effect of exposure of limonene to 3 hours of sunlight and its efficiency as preventing decay compared to no treatment (dipping in water) or treatment with an ethanol solution (25%) are summarized in Table 4 in a commercial like experiment with uninoculated fruit.

Penicillium digitatum [2] = test: Decay of lemons inoculated with Penicillium 10^4 spores/ml and dipped; type: in vivo, Penicillium digitatum on lemons; settings: inoculated lemons dipped a day after inoculation, kept 6 days at 20° C.
Description: Lemon fruit flavedo (exocarp) was taken and extracted overnight in dichloromethane, then exposed to sunlight for about 18 hours until the color of the dichloromethane extract turned brown. The flavedo was blended and filtered through a layer of Whatman paper. The extracted solution was evaporated to remove the dichloromethane and the dense liquor was further separated by chromatography with a silica 60 column using dichloromethane as a carrier. Two fractions of dichloromethane, one green and the other colorless, were obtained after chromatography. The crude active extract was isolated by evaporation of the green dichloromethane fraction. […] Effect of the compounds on pathogen development on the fruit was checked daily during storage.
The antifungal activity of the products prepared in the two different routes was checked in the same method. […] Decay was evaluated at specific intervals during a period of 26 days.
Lemons inoculated with Penicillium (10^4 spores/ml) were dipped in an aqueous solution comprising citral, a detergent (Tween 20), other essential oil components as well as a dichloromethane crude extract of lemon flavedo exposed to sunlight. Decay was evaluated at specific intervals during a period of 20 days.
Pure limonene was exposed to sunlight for three hours. […]

[3] = system: non-inoculated Washington oranges; test: Decay percentage of non-inoculated Washington oranges during storage; type: in vivo, Washington navel oranges
Description: Non-inoculated Washington navel oranges were divided into […] groups which were treated as follows: (a) no treatment; (b) dipped in 50% Ethanol; (c) dipped in 0.2% Citral in 0.02% L-77 Emulsifier (aqueous emulsion); (d) dipped in 0.2% Citral in 50% Ethanol; and (e) dipped in a 0.2% aqueous Imazalil solution.
Oranges were then stored for four months at 15° C. in 50-75% relative humidity and the percentage of rotten fruit in each group was measured at different time periods after storage.

CCO [Ethanol 25%, Ethanol]
fruit rotten (Penicillium digitatum [1]): more than 50%
Decay of kumquat fruit, End of storage (kumquat fruit): 7.9 ab
% Decay (Penicillium digitatum [2]): 30%
% of rotten fruit ([3]; 0.5 months of storage at 15° C.): 0%
% of rotten fruit ([3]; 1 month of storage at 15° C.): 4%
% of rotten fruit ([3]; 2 months of storage at 15° C.): 14%
% of rotten fruit ([3]; 3 months of storage at 15° C.): 20%
% of rotten fruit ([3]; 4 months of storage at 15° C.): 23%
